Data published in US11192863B2, “Antiviral compounds and methods” (Biotron Limited, priority 2003, dated 2021).
Entries after “also recorded” stand apart in the source; their conditions may differ. Where two headings read alike, the source gives them in different places.

What was measured:
MHV (strain MHV-A59) [1] = conditions: L929 cells
229E-CoV E-protein = 229E-CoV E-protein (Human coronavirus 229E, UniProt P19741); assay: Bacterial bio-assay for 229E-CoV E-protein; conditions: halo of growth score; E. coli expressing E protein at 37° C.
229E-CoV E-protein, sequence (P19741 whole entry): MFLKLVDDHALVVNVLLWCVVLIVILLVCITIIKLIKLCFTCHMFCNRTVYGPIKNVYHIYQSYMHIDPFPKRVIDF

Vpu protein = Vpu protein (Human immunodeficiency virus type 1 group M subtype B, UniProt P05919); conditions: for Vpu Inhibition (score/# of times tested): halo of growth score between zero and six, XL1-blue E. coli with pPL-Vpu, no adenine, 37° C.
Vpu protein, sequence (P05919 whole entry): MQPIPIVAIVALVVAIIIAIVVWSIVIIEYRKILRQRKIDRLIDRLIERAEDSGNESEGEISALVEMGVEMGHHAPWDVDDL

MHV (strain MHV-A59) [2] = assay: microbe, parasite or virus in culture; conditions: Murine coronavirus, L929, read-out: Percent reduction in Plaque number/# experiments
SARS-CoV E protein = SARS-CoV E protein (Severe acute respiratory syndrome coronavirus, UniProt P59637); type: cell-based
SARS-CoV E protein, sequence (P59637 whole entry, looked up): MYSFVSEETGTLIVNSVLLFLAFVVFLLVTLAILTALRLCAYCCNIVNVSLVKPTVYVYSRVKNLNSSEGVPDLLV

human coronavirus OC43 = assay: microbe, parasite or virus in culture; type: cell-based; conditions: Betacoronavirus 1, OC43, MRC5, 120 h, MRC-5 cells, 5 days post infection
EAV (strain Bucyrus) = assay: EAV plaque reduction assay in BHK-21 cells; type: cell-based; conditions: Equine arteritis virus; EAV plaques in BHK-21 cells
Procedure: To determine the antiviral activity of compounds against EAV replication (strain Bucyrus; ATCC VR-796), an assay measuring reduction in the number of plaques formed in monolayers of EAV infected BHK-21 cells (ATCC CCL-10) was developed: […] Plates were subsequently incubated at 37° C. […] Plaques were counted in all wells and the percentage reduction in plaque number compared to solvent control was calculated. Measurements were performed in duplicate to quadruplicate wells.

[3] = molecular target: Dengue virus M protein C-terminal peptide (Dengue virus type 1, UniProt P33478); assay: Dengue virus M protein C-terminal peptide ion channel in lipid bilayers; type: biochemical; conditions: final concentration of HMA 100 μM in cis chamber
Dengue virus M protein C-terminal peptide, sequence (P33478 241-280): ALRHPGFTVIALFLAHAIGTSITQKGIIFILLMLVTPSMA
Procedure: The dengue virus M protein C-terminal peptide (DMVC) was dissolved in 2,2,2-trifluorethanol (TFE) at 0.05 mg/ml to 1 mg/ml. […] Channel activity was seen within 15-30 min.
Solutions of 50 mM HMA were prepared by first making a 500 mM solution in DMSO. This solution was further diluted to 50 mM HMA using 0.1 M HCl. 2 μl of the 50 mM HMA was added to the cis chamber after channel activity was seen. The cis chamber contained 1 ml of solution making the final concentration of HMA 100 μM.

[4] = molecular target: SARS E protein ion channel (Severe acute respiratory syndrome coronavirus, UniProt P59637); type: biochemical, SARS-CoV
bovine coronavirus (BCV) = assay: BCV plaque assay in MDBK cells; type: cell-based; conditions: Betacoronavirus 1; BCV plaques in MDBK cells
HIV = type: cell-based; conditions: for At least 1x log reduction seen in p24 assay?: Table 19b, yes/no
[5] = tested on: porcine respiratory coronavirus (PRCV) strain AR310; assay: PRCV plaque assay in ST cells; type: cell-based; conditions: Alphacoronavirus 1; PRCV plaques in ST cells
Dengue 1 strain Hawaii = assay: Dengue cytoproliferation assay in LLC-MK2 cells (Alamar Blue); type: cell-based, Dengue virus; conditions: 7 days
[6] = molecular target: 229E E protein ion channel (Human coronavirus 229E, UniProt P19741); assay: 229E E protein ion channel in planar lipid bilayers; type: biochemical; conditions: 100 μM added to the cis chamber; FIG. 10
229E E protein ion channel, sequence (P19741 whole entry): as the sequence (P19741 whole entry) above
Procedure: The 229E E synthetic peptide was dissolved in 2,2,2-trifluorethanol (TFE) at 0.05 mg/ml to 1 mg/ml. […] Ionic currents, indicating channel activity in the bilayer, were typically detected within 15-30 min. After channels were detected the holding potential across the bilayer was varied between −100 mV and +100 mV to characterise the size and polarity of current flow and enable the reversal potential to be determined.
To test compounds for their ability to block or otherwise inhibit the ion channel formed by 229E E protein, small aliquots of solutions containing the compounds were added to the aqueous solutions bathing planar lipids in which the peptide channel activity had been reconstituted and the effect of the compound addition on the ionic currents was recorded and measured.
Compound stock solutions were typically prepared at 500 mM in DMSO. This solution was further diluted to 50 mM, or lower concentration in 50% DMSO/50% methanol and 2 μl of the appropriately diluted compound was added to the cis and/or trans chambers to yield the desired final concentration.

[7] = tested on: SARS-CoV (Hong Kong strain); type: cell-based, SARS coronavirus; conditions: for decrease in virus titre: 10 uM; for Titre (% control): 48 hours; for Average TCID50 (×10^6): 48 hours post infection
[8] = Table 19a, rank among 12 compounds, 1 = highest score

| Compound | Percent reduction in Plaque number/# experiments (MHV (strain MHV-A59) [1]; 1 uM) | Percent reduction in Plaque number/# experiments (MHV (strain MHV-A59) [1]; 10 uM) | 229E E protein Inhibition (score) (229E-CoV E-protein) | Vpu Inhibition (score/# of times tested) (Vpu protein) | SARS E protein Inhibition (score/# of times tested) (SARS-CoV E protein) | inhibition at 2.5 µM (human coronavirus OC43) [%] | IC50 (EAV (strain Bucyrus)) [µM] | inhibition at 1 µM (MHV (strain MHV-A59) [2]) [%] | Percent reduction in Plaque number/# experiments (MHV (strain MHV-A59) [1]; 20 uM) | Bacterial assay rank order (Vpu protein; [8]) | Bacterial assay rank order (Vpu protein; Table 19b) | Vpu Bacterial score (Vpu protein; Table 19b) | % Reduction of average current by 100 μM [4] [%] | EC50 (bovine coronavirus (BCV)) [µM] | At least 1x log reduction seen in p24 assay? (HIV) | EC50 [5] [µM] | other results |
| --- | --- | --- | --- | --- | --- | --- | --- | --- | --- | --- | --- | --- | --- | --- | --- | --- | --- |
| N=C(N)NC(=O)Cc1cccc2ccccc12 [2-(1-napthyl)acetoylguanidine] | 11/1% | 02/1% | 0.8 | 1.56/2 score | 1.50/1 score | – | – | – | – | – | – | – | – | – | – | – | inhibition at 20 µM (MHV (strain MHV-A59) [2]): -19% |
| CC(C)(C)c1ccccc1/C=C/C(=O)NC(=N)N [2-t-butylcinnamoylguanidine] | 37/1% | 98/2% | 3.9 | 2.13/2 score | 1.86/1 score | 4 | 1 | – | – | – | – | – | – | – | – | – | – |
| N=C(N)NC(=O)/C=C/c1cccc(C2=CCCCC2)c1 [3-(cyclohex-1-en-1-yl)cinnamoylguanidine] | – | 2/2% | 2.4 | 2.5/2 score | 3.75/1 score | – | – | -19 | – | – | – | – | – | – | – | – | – |
| NC(N)=NC(=O)c1nc(Cl)c(N2CCCCCC2)nc1N [5-(N,N-hexamethylene)amiloride] | 13/2% | 89/1% | 1.9 | 1.9/31 score | 1.2/3 score | 30 | 7.5 | – | 84/2% | 10 | 10 | 1.9 | 91 ± 7 | 9 | no | 0.06 | ion channel activity of the Dengue virus M protein C-terminal peptide (in words) [3]: Inhibits Ion Channel Activity; bacterial growth around site of drug application (FIG. 5) (Vpu protein; 3 μl drop, minimal medium lacking adenine, 37° C. 48 hr): halo of bacterial growth; Percent of Positive Control (HIV; Drug Conc. 0.625 μM): 30%; Percent of Positive Control (HIV; Drug Conc. 1.25 μM): 19%; Percent of Positive Control (HIV; Drug Conc. 2.5 μM): 50%; Percent of Positive Control (HIV; Drug Conc. 5 μM): 21%; Percent of Positive Control (HIV; Drug Conc. 10 μM): 6% |
| N=C(N)NC(=O)/C=C/c1ccco1 [(2-Furanacryloyl)guanidine] | – | 63/2% | – | 0.94/2 score | 0.82/2 score | – | – | -3 | 67/2% | – | – | – | – | – | – | – | – |
| N=C(N)NC(=O)/C=C/c1cccc(Br)c1 [(3-Bromocinnamoyl)guanidine] | 39/3% | 90/3% | 1.7 | 4.3/24 score | 3.15/27 score | 100 | 10 | – | 95/2% | 1 | 1 | 4.3 | 87 ± 11 | 3 | yes | 11.2 | Percent of Positive Control (HIV; Drug Conc. 0.625 μM): 116%; Percent of Positive Control (HIV; Drug Conc. 1.25 μM): 59%; Percent of Positive Control (HIV; Drug Conc. 2.5 μM): 9%; Percent of Positive Control (HIV; Drug Conc. 5 μM): 1%; Percent of Positive Control (HIV; Drug Conc. 10 μM): 3% |
| N=C(NC(=O)CCc1ccccc1)NC(=O)CCc1ccccc1 [N,N′-Bis(3-phenylpropanoyl)guanidine, N,N-Bis(3-phenylpropanoyl)guanidine] | – | 30/4% | 0.3 | 0.1/2 score | – | – | – | -8 | 41/3% | – | – | – | – | – | – | – | – |
| N=C(NC(=O)c1ccc2cc(O)ccc2c1)Nc1ccccc1 [N-(6-Hydroxy-2-napthoyl)-N′-phenylguanidine] | – | 39/1% | – | 2.06/2 score | 1.35/3 score | – | – | -5 | 43/1% | – | – | – | – | – | – | – | – |
| NC(N)=NC(=O)/C=C/c1ccccc1 [cinnamoylguanidine] | 52/7% | 88/8% | 1.3 | 2.96/12 score | 0.69/3 score | 57 | – | – | 97/8% | 4 | 4 | 3.0 | – | 42 | yes | 0.08 | Antiviral Percent of Negative Control (Dengue 1 strain Hawaii; Drug Conc. 0.625 μM): 76.6%; Antiviral Percent of Negative Control (Dengue 1 strain Hawaii; Drug Conc. 1.25 μM): 72.6%; Antiviral Percent of Negative Control (Dengue 1 strain Hawaii; Drug Conc. 2.5 μM): 58.3%; Antiviral Percent of Negative Control (Dengue 1 strain Hawaii; Drug Conc. 5 μM): 38.6%; Antiviral Percent of Negative Control (Dengue 1 strain Hawaii; Drug Conc. 10 μM): 17.1%; current flow through the 229E E ion channel (in words) [6]: greatly reduced current flow; E protein ion channel activity (in words) [4]: inhibited; also recorded: significantly reduced; SARS E protein N-terminal peptide channel (in words) [4]: blocked; channels formed by full-length E protein (in words) [4]: blocked; reduction of average current across the bilayer [4]: about 4 fold; average current across the bilayer (in words) ([4]; 100 μM): reduced to baseline; decrease in virus titre [7]: approximately 80%; Titre (% control) ([7]; Compound Concentration 2 uM): 82 % control; Average TCID50 (×10^6) ([7]; Compound Concentration 2 uM): 4.4 ×10^6; Titre (% control) ([7]; Compound Concentration 10 uM): 24 % control; Average TCID50 (×10^6) ([7]; Compound Concentration 10 uM): 1.3 ×10^6 |
| N=C(N)NC(=O)/C=C/c1cccc2ccccc12 [trans-3-(1-napthyl)acryloylguanidine] | 34/3% | 86/3% | 3.7 | 2.9/3 score | 3.38/2 score | 100 | 7.5 | – | 95/2% | 5.5 | 5.5 | 2.9 | 66 ± 2 | 13 | yes | 19.1 | Antiviral Percent of Negative Control (Dengue 1 strain Hawaii; Drug Conc. 0.625 μM): 77.7%; Antiviral Percent of Negative Control (Dengue 1 strain Hawaii; Drug Conc. 1.25 μM): 73.7%; Antiviral Percent of Negative Control (Dengue 1 strain Hawaii; Drug Conc. 2.5 μM): 38.7%; Antiviral Percent of Negative Control (Dengue 1 strain Hawaii; Drug Conc. 5 μM): 12.4%; Antiviral Percent of Negative Control (Dengue 1 strain Hawaii; Drug Conc. 10 μM): 6.8%; reduction in virus titre ([7]; 2 μM): approximately 50%; decrease in virus titre [7]: approximately 80%; Titre (% control) ([7]; Compound Concentration 2 uM): 46 % control; Average TCID50 (×10^6) ([7]; Compound Concentration 2 uM): 2.45 ×10^6; Titre (% control) ([7]; Compound Concentration 10 uM): 22 % control; Average TCID50 (×10^6) ([7]; Compound Concentration 10 uM): 1.15 ×10^6 |
